# Experiments:
# [1] = tested on: Thiobacilli; test: Acidification of water on sulfur block treated with salt powder and covered with sand (Example 9); assay type: cell-based, Thiobacillus; details: about 150 g of salt in powder form on surface, 2 cm sand
# Experimental: Two blocks of elemental sulfur with an upper surface of approximately 2500 cm^2 (8.5 Kg of sulfur) are positioned in two containers. The upper surface of each block of sulfur is wetted with 250 ml of a bacterial suspension of Thiobacilli containing over 10^8 bacteria per milliliter. The surface of one block is then treated with sodium chloride by spreading about 150 g of salt in powder form uniformly distributed. The two blocks are subsequently covered with a 2 cm layer of sand and wetted at regular intervals of time with rainwater until the layer of sand is saturated and the rilling of excess water is produced with respect to the saturation. Rainwater is added every month in a quantity equivalent to a fall of 100 mm.
# The containers are exposed to the outside environment for three months. At the end of this period, the pH of the water in contact with the sulfur in the two containers, is measured.
# [2] = tested on: Thiobacilli (consortium); test: Effect of different salts on acidification, TM medium with sulfur powder and inoculated mixed culture (Example 7); assay type: cell-based, Thiobacillus
# Experimental: The verification is aimed at discovering the effects deriving from the presence of different salts at varying concentrations on the same consortium.
# A series of 12 100 ml flasks containing 50 ml of TM medium (with 0.4 g of sulfur powder), was inoculated with 1 ml of mixed culture containing 10^8 cells/ml.
# • 3 control flasks containing TM and sulfur, with NaCl (0.16 M, 0.33 M, 0.56 M); • 3 flasks with TM, sulfur and Na2SO4 (0.12 M, 0.24 M, 0.56 M); • 3 flasks with TM, sulfur and KCl (0.13 M, 0.26 M, 0.56 M); • 3 flasks with TM, sulfur and KNO3 (0.09 M, 0.19 M, 0.56 M) The data collected are listed in Table 6.
compound,measurement,setting,value
"[Cl-].[Na+] [NaCl, Sodium Chloride]",pH,[1]; day 0,6.0
same,pH,[1]; day 10,5.8
same,pH,[1]; day 20,5.7
same,pH,[1]; day 30,5.7
same,pH,[1]; day 40,5.7
same,pH,[1]; day 90,5.7
same,PH,"[2]; salt 0.16 M, day 0",6.0
same,PH,"[2]; salt 0.16 M, day 2",6.0
same,PH,"[2]; salt 0.16 M, day 6",3.5
same,PH,"[2]; salt 0.16 M, day 9",2.8
same,PH,"[2]; salt 0.16 M, day 12",2.8
same,PH,"[2]; salt 0.16 M, day 15",2.5
same,PH,"[2]; salt 0.16 M, day 18",2.5
same,PH,"[2]; salt 0.16 M, day 20",2.5
same,PH,"[2]; salt 0.16 M, day 24",2.0
same,PH,"[2]; salt 0.16 M, day 28",1.7
same,PH,"[2]; salt 0.16 M, day 30",1.6
same,PH,"[2]; salt 0.16 M, day 40",1.3
same,PH,"[2]; salt 0.33 M, day 0",6.0
same,PH,"[2]; salt 0.33 M, day 2",6.0
same,PH,"[2]; salt 0.33 M, day 6",5.5
same,PH,"[2]; salt 0.33 M, day 9",5.0
same,PH,"[2]; salt 0.33 M, day 12",3.0
same,PH,"[2]; salt 0.33 M, day 15",3.0
same,PH,"[2]; salt 0.33 M, day 18",3.0
same,PH,"[2]; salt 0.33 M, day 20",2.5
same,PH,"[2]; salt 0.33 M, day 24",2.5
same,PH,"[2]; salt 0.33 M, day 28",1.9
same,PH,"[2]; salt 0.33 M, day 30",1.7
same,PH,"[2]; salt 0.33 M, day 40",1.4
same,PH,"[2]; salt 0.56 M, day 0",6.0
same,PH,"[2]; salt 0.56 M, day 2",6.0
same,PH,"[2]; salt 0.56 M, day 6",6.0
same,PH,"[2]; salt 0.56 M, day 9",6.0
same,PH,"[2]; salt 0.56 M, day 12",6.0
same,PH,"[2]; salt 0.56 M, day 15",6.0
same,PH,"[2]; salt 0.56 M, day 18",6.0
same,PH,"[2]; salt 0.56 M, day 20",6.0
same,PH,"[2]; salt 0.56 M, day 24",6.0
same,PH,"[2]; salt 0.56 M, day 28",6.0
same,PH,"[2]; salt 0.56 M, day 30",6.0
same,PH,"[2]; salt 0.56 M, day 40",5.8

# From patent US7585460B2, “Method for inhibiting the biological acidification of water in contact with materials containing sulfur” (ENI S.p.A., priority 2003, dated 2009)
